# Measurements reported in patent publication US20240376165A1, “COMPOSITION COMPRISING VGLL1 PEPTIDE FOR TREATMENT OF CANCER” (ONECUREGEN CO., LTD., priority 2020, published 2024).
# d = 2'-deoxy (DNA); r = 2'-OH (RNA)
# B1: HA-VGLL1-S84A, expressed from pcDNA3-HA-VGLL1-S84A (other)
# chain: MEEMKKTAIRLPKGKQKPIKTEWNSRCVLFTYFQGDISSVVDEHFSRALSNIKSPQELTPSSQSEGVMLKNDDSMSPNQWRYSAPWTKPQPEVPVTNRAANCNLHVPGPMAVNQFSPSLARRASVRPGELWHFSSLAGTSSLEPGYSHPFPARHLVPEPQPDGKREPLLSLLQQDRCLARPQESAARENGNPGQIAGSTGLLFNLPPGSVHYKKLYVSRGSASTSLPNETLSELETPGKYSLTPPNHWGHPHRYLQHL
# notes: Serine 84 of VGLL1 replaced with alanine by site-directed mutagenesis in the pcDNA3-HA-VGLL1 vector; also called S84A mutation; not shown: HA tag from the pcDNA3-HA vector
# What was measured:
# MMP9 [1] = assay: MMP9 mRNA expression after TGF-β treatment, RT-PCR; type: cell-based, human; settings: NUGC3, 20 nM siRNA, TGF-β 18 hours, compared to control (siSC), FIG. 4
# Description: In order to determine whether VGLL1 and TEAD4 were involved in MMP9 mRNA expression in NUGC3 human stomach cancer cells, MMP9 mRNA expression was examined by RT-PCR after TGF-β treatment.
# Specifically, the stomach cancer cell line NUGC3 was cultured in a 6-well plate. The next day, 20 nM siSC, siVGLL1, siTEAD4, and siYAP were mixed with Lipofectamine 2000, and the cell line was treated with the mixture. The next day, after treatment with TGF-β for 18 hours, mRNA was extracted from the cells and complementary DNA was synthesized, followed by RT-PCR.
# MMP9 promoter = MMP9 promoter luciferase activity after TGF-β treatment; type: cell-based, human; settings: NUGC3, 20 nM siRNA, TGF-β 18 hours, compared to control (siSC), FIG. 3
# Description: In order to determine whether VGLL1 and TEAD4 were involved in MMP9 promoter activity in NUGC3 human stomach cancer cell line, the MMP9 promoter luciferase activity was investigated after TGF-β treatment.
# Specifically, the stomach cancer cell NUGC3 was cultured in a 48-well plate at a concentration of 2× 10^4 cells/well. The next day, the MMP9 gene-inserted pGL4.17-luciferase vector was transfected into cells using Lipofectamine 2000. After 24 hours, 20 nM siSC (SEQ ID NO: 23: 5′-CCUACGCCACCAAUUUCGUdTdT-3′) siVGLL1 (SEQ ID NO 24: 5′-[…]dTdT-3′), siTEAD4 (SEQ ID NO 25: 5′-GACACUACUCUUACCGCAUdTdT-3′), and siYAP (SEQ ID NO 26: 5′-CCACCA AGCUAGAUAAAGAAAdTdT-3′) were mixed with Lipofectamine 2000, and the cells were treated with the mixture. The next day, the cells were treated with TGF-β for 18 hours. Thereafter, the cells were disrupted using a passive lysis buffer. Then, after centrifuging cells, a supernatant was obtained. […] At this time, the degree of luminescence of the cells was checked using Victor X Light.
# [2] = system: stomach cancer cell line NUGC3; assay: Cell proliferation after siRNA, Sulforhodamine B staining; type: cell-based, human; settings: NUGC3, 20 nM siRNA, 48 hours, FIG. 2B
# Description: In addition, in order to confirm the cell proliferation ability of MMP9, the stomach cancer cell line NUGC3 was cultured in a 96-well plate. The next day, cells were treated with the mixture of Lipofectamine 2000 and 20 nM siSC or siMMP9. After 48 hours, cells were fixed using 1% formalin solution. Thereafter, the cells were stained with 0.4% Sulforhodamine B solution for 1 hour, washed with acetic acid, and dried. Then, the cells were dissolved in a 10 mM Tris solution, and absorbance was measured at 540 nm using an ELISA plate reader (FIG. 2B).
# MMP9 [3] = assay: MMP9 knockdown by siRNA, RT-PCR; type: cell-based, human; settings: NUGC3, 20 nM siRNA, 48 hours, FIG. 2A
# Description: Specifically, the stomach cancer cells line NUGC3 was cultured in a 6-well plate overnight, and then treated with the mixture of Lipofectamine 2000 and 20 nM siSC or siMMP9 (SEQ ID NO: 22) and. After 48 hours, mRNA was extracted from the cells and complementary DNA was synthesized, followed by RT-PCR using the MMP9 primer (FIG. 2A).
# [4] = system: stomach cancer cell line NUGC3; assay: Matrigel cell invasion after siRNA; type: cell-based, human; settings: NUGC3, siRNA knockdown cells, Matrigel insert, 48 hours, FIG. 2C
# Description: (§1) Next, in order to confirm the cell invasive ability of MMP9, a cell culture insert was fixed in a 24-well plate. Matrigel was diluted 20-fold, and 100 μl of diluent was added. The reaction was carried out at 37° C. for 1 hour or longer. 700 μl of medium containing 10% serum was added to a 24-well plate under the insert. MMP knockdown cells with the above siRNA were added to the insert according to 300 μl of serum-free medium to a concentration of 5×10^5. After 48 hours, the insert was removed and cells were fixed in 10% formalin solution. Cells remaining inside the insert were removed with a cotton swab and washed with water. Cells were stained with 0.4% Sulforhodamine B solution for 1 hour, washed with acetic acid, and dried. Then, a photograph was taken with an optical microscope, the membrane on the insert was cut, and Sulforhodamine B in stained cells was dissolved in 10 mM Tris solution, and absorbance was measured at 540 nm using an ELISA plate reader (FIG. 2C).
# MMP9 [5] = assay: MMP9 expression by TGF-β treatment, RT-PCR; type: cell-based, human; settings: NUGC3, RT-PCR, after 6 hours of TGF-β treatment, FIG. 1
# Description: In order to confirm the expression change of MMP9 according to TGF-β treatment in stomach cancer cell lines, the human stomach cancer cell line NUGC3 was treated with TGF-β at each time period, then mRNA was extracted from the cells, and complementary DNA was synthesized. Then RT-PCR was performed using Matrix metalloproteinase 9 (MMP9) primers (Table 4).
# [6] = system: stomach cancer cell line NUGC3; assay: Cancer cell proliferation, real-time cell analysis (IncuCyte Zoom); type: cell-based, human; settings: FIG. 9
# Description: Specifically, the stomach cancer cell line NUGC3 was cultured in a 96-well plate. The next day, the cells were treated with the peptide fragment. The cell proliferation was analyzed using a real-time cell analysis system (product name: IncuCyte Zoom).
# [7] = system: stomach cancer cell line NUGC3; assay: Cancer cell proliferation with peptide variants, real-time cell analysis (Incucyte); type: cell-based, human; settings: NUGC3, 60 μM peptide, FIG. 11
# Description: The stomach cancer cell line NUGC3 was cultured in a 96-well plate, and the next day, the cells were treated with 60 μM peptide. The cell proliferation was analyzed using a real-time cell analysis system (product name: Incucyte).
# FIG. 11A is a graph of real-time cell proliferation, and FIG. 11B is a graph showing cell proliferation after 4 days based on 100% control peptide.
# [8] = system: stomach cancer cell line NUGC3; assay: Cancer cell invasion with peptide fragment; type: cell-based, human; settings: NUGC3, insert, 48 hours, FIG. 10
# Description: as §1
# A method similar to Example 1-2 was performed for stomach cancer cell invasion experiment by the VGLL1 peptide fragment.
# The stomach cancer cell line NUGC3 was placed in an insert together with the peptide fragment. After 48 hours of cell culture, the insert was fixed in a 10% formalin solution, and the downwardly migrated cells were confirmed by staining with 0.4% Sulforhodamine B solution.
# MMP9 [9] = assay: MMP9 protein expression induced by TGF-β, western blot, peptide treatment; type: cell-based, human; settings: NUGC3, TGF-β and peptide for 18 hours, FIG. 8
# Description: To evaluate whether the peptide fragment that interferes the binding between VGLL1 and TEAD4 can inhibit MMP9 expression in human stomach cancer cells, peptides shown in Table 6 were prepared to examine their effects on MMP9 expression.
# Experiments were performed using the synthetic peptide fragments. The stomach cancer NUGC3 cells were cultured in a 6-well plate. The next day, cells were cultured in serum-free cell culture for 24 hours. TGF-β and a control peptide fragment (SEQ ID NO: 12), a peptide fragment containing serine at position 84 of VGLL1 (SEQ ID NO: 27), and a mutant peptide fragment containing alanine at position 84 of VGLL1 (SEQ ID NO: 28) were treated into cells for 18 hours. Proteins were extracted from the cells using a Ripa buffer and were separated by electrophoresis. Thereafter, protein expression of genes was confirmed by using an antibody on the polyvinylidene fluoride membrane.
# colorectal cancer cells = assay: Proliferation of various cancer cells: colorectal cancer; type: cell-based; settings: 60 μM peptide; SW620, HCT116, WiDr; FIG. 12
# Description: (§2) In order to confirm the various cancer cell proliferation inhibitory effects of the variant of S84 VGLL1 peptide fragment, the VGLL1 S84 peptide sequence represented by SEQ ID NO: 27 was treated into various cancer cell lines.
# (§3) Specifically, the cancer cells of Table 8 were cultured in a 96-well plate and treated with 60 μM peptide on the next day, and cell proliferation was analyzed using a real-time cell analysis system (product name: IncuCyte Zoom).
# ovarian cancer cells = assay: Proliferation of various cancer cells: ovarian cancer; type: cell-based; settings: 60 μM peptide; SK-OV3; FIG. 12
# Description: as §2, §3
# prostate cancer cells = assay: Proliferation of various cancer cells: prostate cancer; type: cell-based; settings: 60 μM peptide; FIG. 12
# Description: as §2, §3
# lung cancer cells = assay: Proliferation of various cancer cells: lung cancer; type: cell-based; settings: 60 μM peptide; A549, H1650, H1299; FIG. 12
# Description: as §2, §3
# cervical cancer cells = assay: Proliferation of various cancer cells: cervical cancer; type: cell-based; settings: 60 μM peptide; Hela; FIG. 12
# Description: as §2, §3
# stomach cancer cells = assay: Proliferation of various cancer cells: stomach cancer; type: cell-based; settings: 60 μM peptide; NUGC3, AG5, NCI-N87, SNU484, MKN1; FIG. 12
# Description: as §2, §3
# liver cancer cells = assay: Proliferation of various cancer cells: liver cancer; type: cell-based; settings: 60 μM peptide; HepG2, SNU354; FIG. 12
# Description: as §2, §3
# breast cancer cells = assay: Proliferation of various cancer cells: breast cancer; type: cell-based; settings: 60 μM peptide; MCF7, SKBR3; FIG. 12
# Description: as §2, §3
# [10] = molecular target: T1, GFP-TEAD4, expressed from the GFP-TEAD4 vector (UniProt Q15561 1-434); assay: co-immunoprecipitation with HA antibody agarose, western blot with GFP antibody
# T1 construct: Detected with GFP antibody in the HA immunoprecipitate; also called transcription factor TEAD4; not shown: GFP tag
# Description: Specifically, the GFP-TEAD4 vector and pcDNA3-HA (EV), pcDNA3-HA-VGLL1 (WT), pcDNA3-HA-VGLL1-S50A (S50A mutation), pcDNA3-HA-VGLL1-S84A (S84A mutation), and pcDNA3-HA-VGLL1-S124A (S124A mutation) were mixed with Turbofect. The mixture was transformed to the cell lines cultured for 24 hours. After 48 hours, the protein was extracted from the cells using a Ripa buffer. The extracted protein was subjected to immunoprecipitation using agarose bound with HA antibody and separated by electrophoresis. Thereafter, western blot analysis was performed using an antibody on the polyvinylidene fluoride membrane.
# T1 sequence (Q15561 whole entry): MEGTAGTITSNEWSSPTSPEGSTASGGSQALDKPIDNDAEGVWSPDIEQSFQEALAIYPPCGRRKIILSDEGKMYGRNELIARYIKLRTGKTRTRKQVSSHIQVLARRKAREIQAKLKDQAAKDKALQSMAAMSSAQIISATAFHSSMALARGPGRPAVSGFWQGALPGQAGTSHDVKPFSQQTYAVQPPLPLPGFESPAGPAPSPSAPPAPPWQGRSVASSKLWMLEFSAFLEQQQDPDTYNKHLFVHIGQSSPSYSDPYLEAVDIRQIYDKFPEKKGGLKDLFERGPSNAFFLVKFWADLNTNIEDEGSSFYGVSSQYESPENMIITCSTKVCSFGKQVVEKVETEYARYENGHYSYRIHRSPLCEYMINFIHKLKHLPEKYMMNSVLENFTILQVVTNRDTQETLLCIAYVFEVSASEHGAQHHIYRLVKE
molecule,measurement,setting,value
"5′-AGCCUAUAAAGACGGAAUGGAAUdTdT-3′ (sense AGCCUAUAAAGACGGAAUGGAAUTT; sugars from the 5' end r23 d2, backbone not given here) [siVGLL1, siRNA against VGLL1]",MMP9 mRNA expression increased by TGF-β,MMP9 [1],decreased
same,MMP9 promoter activity increased by TGF-β,MMP9 promoter,decreased
5′-CCACAACAUCACCUAUUGGAUdTdT-3′ [siMMP9],cell viability,[2],greatly reduced cell viability
same,expression of MMP9,MMP9 [3],reduced expression of MMP9
same,cell invasiveness,[4],greatly reduced cell invasiveness
5′-GACACUACUCUUACCGCAUdTdT-3′ [siTEAD4],MMP9 mRNA expression increased by TGF-β,MMP9 [1],decreased
same,MMP9 promoter activity increased by TGF-β,MMP9 promoter,decreased
Transforming growth factor-β [TGF-β],expression of MMP9,MMP9 [5],increased
YGRKKRRQRRR (HIV-1 Tat) [Control peptide],inhibition of cancer cell proliferation,[6],did not have any effect
YGRKKRRQRRR-PNQWRYSSAWTKPQP (YGRKKRRQRRRPNQWRYSSAWTKPQP; HIV TAT sequence linked; Tat-VGLL1(P85A)) [VGLL1 P85A],inhibition of cancer cell proliferation,[7],excellent effect in inhibiting cancer cell proliferation
YGRKKRRQRRR-PNQWRYSSPWAKPQP (YGRKKRRQRRRPNQWRYSSPWAKPQP; HIV TAT sequence linked; Tat-VGLL1(T87A)) [VGLL1 T87A],inhibition of cancer cell proliferation,[7],excellent effect in inhibiting cancer cell proliferation
YGRKKRRQRRR-YSSPWTK (YGRKKRRQRRRYSSPWTK; HIV TAT sequence linked; Tat-VGLL1(S84-S)) [VGLL1 S84-S],inhibition of cancer cell proliferation,[7],excellent effect in inhibiting cancer cell proliferation
"YGRKKRRQRRRPNQWRYSAPWTKPQP (HIV TAT domain linked; Tat-VGLL1(S84A)) [VGLL1 (S84A), reference compound]",inhibition of cancer cell proliferation,[6],did not have any effect
same,inhibition of cancer cell invasion,[8],did not exhibit such an effect
same,increased MMP9 expression by TGF-β,MMP9 [9],not affected
YGRKKRRQRRRPNQWRYSSPWTKPQP [VGLL1 (S84)],inhibition of proliferation of colorectal cancer cells,colorectal cancer cells,excellent effect in inhibiting the proliferation
same,inhibition of cancer cell proliferation,[6],exhibited an effect of inhibiting cancer cell proliferation
same,inhibition of proliferation of ovarian cancer cells,ovarian cancer cells,excellent effect in inhibiting the proliferation
same,inhibition of proliferation of prostate cancer cells,prostate cancer cells,excellent effect in inhibiting the proliferation
same,inhibition of proliferation of lung cancer cells,lung cancer cells,excellent effect in inhibiting the proliferation
same,inhibition of proliferation of cervical cancer cells,cervical cancer cells,excellent effect in inhibiting the proliferation
same,inhibition of proliferation of stomach cancer cells,stomach cancer cells,excellent effect in inhibiting the proliferation
same,inhibition of cancer cell proliferation,[7],excellent effect in inhibiting cancer cell proliferation
same,inhibition of proliferation of liver cancer cells,liver cancer cells,excellent effect in inhibiting the proliferation
same,inhibition of cancer cell invasion,[8],exhibited an effect of inhibiting cancer cell invasion
same,inhibition of proliferation of breast cancer cells,breast cancer cells,excellent effect in inhibiting the proliferation
same,increased MMP9 expression by TGF-β,MMP9 [9],reduced
B1,binding result,[10],no binding
